# Reference: ChEMBL document CHEMBL1201862, “PubChem BioAssay data set” (2004)
# Calls of active or inactive are those of the source.
# Tests used:
# [1] = biological target: T1, Adenosylmethionine-8-amino-7-oxononanoate aminotransferase (Mycobacterium tuberculosis, UniProt P9WQ81); assay: Mycobacterium tuberculosis BioA enzyme inhibitor Measured in Biochemical System Using Plate Reader - 2163-02_Inhibitor_Dose_CherryPick_Activity.; type: functional, Mycobacterium tuberculosis UT205
# T1 sequence (P9WQ81 whole entry): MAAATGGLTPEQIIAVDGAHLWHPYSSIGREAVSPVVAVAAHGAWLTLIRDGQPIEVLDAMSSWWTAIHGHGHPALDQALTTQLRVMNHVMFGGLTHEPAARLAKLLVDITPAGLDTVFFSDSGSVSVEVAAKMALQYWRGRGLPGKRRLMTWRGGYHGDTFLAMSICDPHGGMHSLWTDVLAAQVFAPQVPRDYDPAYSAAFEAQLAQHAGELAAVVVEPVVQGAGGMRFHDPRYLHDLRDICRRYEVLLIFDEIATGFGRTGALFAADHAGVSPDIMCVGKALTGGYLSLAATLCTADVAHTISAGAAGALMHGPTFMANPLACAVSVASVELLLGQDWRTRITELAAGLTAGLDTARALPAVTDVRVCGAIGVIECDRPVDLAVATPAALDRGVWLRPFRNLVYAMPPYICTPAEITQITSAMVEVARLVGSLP
# [2] = biological target: Voltage-dependent T-type calcium channel subunit alpha-1H (Homo sapiens, UniProt O95180); type: functional;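 also: channel activity triggered by adding a high calcium stimulation buffer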
# Chain of Voltage-dependent T-type calcium channel subunit alpha-1H (O95180 whole entry, the tested form may be a part): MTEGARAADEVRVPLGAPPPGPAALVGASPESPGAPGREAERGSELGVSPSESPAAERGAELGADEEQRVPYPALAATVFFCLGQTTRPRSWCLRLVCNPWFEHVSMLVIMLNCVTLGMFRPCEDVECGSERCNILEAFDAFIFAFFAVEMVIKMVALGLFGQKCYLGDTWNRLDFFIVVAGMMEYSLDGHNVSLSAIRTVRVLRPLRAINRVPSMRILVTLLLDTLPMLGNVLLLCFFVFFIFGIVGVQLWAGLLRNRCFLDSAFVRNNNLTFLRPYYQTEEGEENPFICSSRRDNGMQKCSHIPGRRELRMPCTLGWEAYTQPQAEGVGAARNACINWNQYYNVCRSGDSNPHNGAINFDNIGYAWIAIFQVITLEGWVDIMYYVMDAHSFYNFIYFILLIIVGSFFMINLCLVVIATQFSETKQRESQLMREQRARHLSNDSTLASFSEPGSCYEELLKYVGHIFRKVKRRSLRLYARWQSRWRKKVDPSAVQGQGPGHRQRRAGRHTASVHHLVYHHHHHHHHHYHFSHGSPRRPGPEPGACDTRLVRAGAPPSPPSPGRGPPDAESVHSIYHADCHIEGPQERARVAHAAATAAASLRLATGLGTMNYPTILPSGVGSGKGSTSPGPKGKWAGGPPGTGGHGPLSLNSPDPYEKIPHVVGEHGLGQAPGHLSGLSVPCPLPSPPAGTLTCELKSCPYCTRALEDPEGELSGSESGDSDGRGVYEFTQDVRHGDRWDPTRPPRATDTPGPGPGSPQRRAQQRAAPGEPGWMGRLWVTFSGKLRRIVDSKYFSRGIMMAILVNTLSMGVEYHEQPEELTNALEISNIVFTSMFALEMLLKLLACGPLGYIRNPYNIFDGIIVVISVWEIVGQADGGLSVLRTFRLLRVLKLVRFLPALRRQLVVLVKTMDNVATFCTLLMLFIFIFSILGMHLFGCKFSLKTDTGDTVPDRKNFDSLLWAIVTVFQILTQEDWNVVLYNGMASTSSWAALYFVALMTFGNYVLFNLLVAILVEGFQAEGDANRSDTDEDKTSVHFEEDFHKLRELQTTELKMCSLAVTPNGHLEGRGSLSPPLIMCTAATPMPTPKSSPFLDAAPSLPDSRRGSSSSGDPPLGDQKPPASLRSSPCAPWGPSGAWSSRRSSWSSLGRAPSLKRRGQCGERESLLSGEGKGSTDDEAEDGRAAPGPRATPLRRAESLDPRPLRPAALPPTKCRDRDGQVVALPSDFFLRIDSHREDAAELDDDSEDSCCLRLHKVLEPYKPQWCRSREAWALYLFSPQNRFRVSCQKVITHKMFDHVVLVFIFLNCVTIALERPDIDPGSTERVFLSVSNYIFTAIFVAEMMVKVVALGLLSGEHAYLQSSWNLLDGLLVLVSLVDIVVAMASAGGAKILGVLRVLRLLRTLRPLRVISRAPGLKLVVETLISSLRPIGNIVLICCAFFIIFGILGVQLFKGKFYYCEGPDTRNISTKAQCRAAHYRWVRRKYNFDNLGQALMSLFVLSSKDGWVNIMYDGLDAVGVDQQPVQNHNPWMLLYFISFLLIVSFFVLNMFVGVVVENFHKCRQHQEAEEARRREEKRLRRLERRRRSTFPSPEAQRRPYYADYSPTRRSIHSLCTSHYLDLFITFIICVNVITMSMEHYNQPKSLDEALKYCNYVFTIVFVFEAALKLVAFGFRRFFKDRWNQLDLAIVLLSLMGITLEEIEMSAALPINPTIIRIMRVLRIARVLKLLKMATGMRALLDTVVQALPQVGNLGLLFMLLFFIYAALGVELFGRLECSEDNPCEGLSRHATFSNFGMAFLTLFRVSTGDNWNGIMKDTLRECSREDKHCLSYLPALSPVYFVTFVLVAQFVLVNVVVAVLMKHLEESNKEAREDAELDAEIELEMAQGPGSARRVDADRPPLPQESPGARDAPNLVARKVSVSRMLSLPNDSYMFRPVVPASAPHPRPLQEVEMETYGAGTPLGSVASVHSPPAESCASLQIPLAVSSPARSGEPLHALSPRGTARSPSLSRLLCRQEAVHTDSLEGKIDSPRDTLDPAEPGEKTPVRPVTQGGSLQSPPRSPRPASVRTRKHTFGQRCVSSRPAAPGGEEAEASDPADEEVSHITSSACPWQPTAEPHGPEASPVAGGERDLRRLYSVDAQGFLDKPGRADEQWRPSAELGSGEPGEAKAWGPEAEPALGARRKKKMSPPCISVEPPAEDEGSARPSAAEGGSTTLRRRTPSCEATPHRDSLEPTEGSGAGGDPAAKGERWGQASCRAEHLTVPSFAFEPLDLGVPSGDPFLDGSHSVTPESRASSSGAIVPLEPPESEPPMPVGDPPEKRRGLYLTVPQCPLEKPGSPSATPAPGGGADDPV
# [3] = biological target: T2, RNA-binding protein pos-1 (Caenorhabditis elegans, UniProt G5EF15); assay: inhibitors of POS-1/mex-3 RNA binding, dose response, biochemical, fluorescence polarization (AID 1964);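 also: purified POS-1 fused to maltose binding protein made in E. coli; potency of compounds blocking POS-1 binding to fluorescent RNA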
# T2 sequence (G5EF15 whole entry): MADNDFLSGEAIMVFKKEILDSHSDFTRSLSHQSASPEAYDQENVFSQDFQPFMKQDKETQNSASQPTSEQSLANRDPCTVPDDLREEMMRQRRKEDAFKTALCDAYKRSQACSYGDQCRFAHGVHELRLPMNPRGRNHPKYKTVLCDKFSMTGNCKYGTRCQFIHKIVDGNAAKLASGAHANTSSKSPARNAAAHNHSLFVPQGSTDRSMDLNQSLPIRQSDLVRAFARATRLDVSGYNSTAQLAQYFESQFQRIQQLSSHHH
# [4] = biological target: T3, Zinc finger protein mex-5 (Caenorhabditis elegans, UniProt Q9XUB2); assay: MEX-5/TCR-2 RNA interaction inhibitors, dose response, biochemical, C. elegans, fluorescence polarization (AID 1960)
# T3 sequence (Q9XUB2 whole entry): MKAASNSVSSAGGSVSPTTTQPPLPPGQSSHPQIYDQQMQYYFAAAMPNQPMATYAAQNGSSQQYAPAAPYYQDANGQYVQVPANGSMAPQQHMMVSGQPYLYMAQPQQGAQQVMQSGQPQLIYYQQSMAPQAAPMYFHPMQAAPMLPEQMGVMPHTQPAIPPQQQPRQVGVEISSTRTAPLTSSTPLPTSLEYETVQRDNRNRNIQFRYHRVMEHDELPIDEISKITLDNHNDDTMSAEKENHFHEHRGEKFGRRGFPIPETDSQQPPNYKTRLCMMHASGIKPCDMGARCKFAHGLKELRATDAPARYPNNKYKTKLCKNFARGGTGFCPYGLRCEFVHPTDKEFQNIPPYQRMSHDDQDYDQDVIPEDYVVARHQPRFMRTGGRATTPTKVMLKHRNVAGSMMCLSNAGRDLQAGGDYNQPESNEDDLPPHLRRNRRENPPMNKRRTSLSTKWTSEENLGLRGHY
# [5] = biological target: Genome polyprotein (dengue virus type 2, UniProt P29990); assay: Dengue-2 NS5 methyltransferase inhibitors, primary screen, biochemical, confirmation dose response (AID 588689); type: functional
# Chain of Genome polyprotein (P29990 2492-3391 limits assumed): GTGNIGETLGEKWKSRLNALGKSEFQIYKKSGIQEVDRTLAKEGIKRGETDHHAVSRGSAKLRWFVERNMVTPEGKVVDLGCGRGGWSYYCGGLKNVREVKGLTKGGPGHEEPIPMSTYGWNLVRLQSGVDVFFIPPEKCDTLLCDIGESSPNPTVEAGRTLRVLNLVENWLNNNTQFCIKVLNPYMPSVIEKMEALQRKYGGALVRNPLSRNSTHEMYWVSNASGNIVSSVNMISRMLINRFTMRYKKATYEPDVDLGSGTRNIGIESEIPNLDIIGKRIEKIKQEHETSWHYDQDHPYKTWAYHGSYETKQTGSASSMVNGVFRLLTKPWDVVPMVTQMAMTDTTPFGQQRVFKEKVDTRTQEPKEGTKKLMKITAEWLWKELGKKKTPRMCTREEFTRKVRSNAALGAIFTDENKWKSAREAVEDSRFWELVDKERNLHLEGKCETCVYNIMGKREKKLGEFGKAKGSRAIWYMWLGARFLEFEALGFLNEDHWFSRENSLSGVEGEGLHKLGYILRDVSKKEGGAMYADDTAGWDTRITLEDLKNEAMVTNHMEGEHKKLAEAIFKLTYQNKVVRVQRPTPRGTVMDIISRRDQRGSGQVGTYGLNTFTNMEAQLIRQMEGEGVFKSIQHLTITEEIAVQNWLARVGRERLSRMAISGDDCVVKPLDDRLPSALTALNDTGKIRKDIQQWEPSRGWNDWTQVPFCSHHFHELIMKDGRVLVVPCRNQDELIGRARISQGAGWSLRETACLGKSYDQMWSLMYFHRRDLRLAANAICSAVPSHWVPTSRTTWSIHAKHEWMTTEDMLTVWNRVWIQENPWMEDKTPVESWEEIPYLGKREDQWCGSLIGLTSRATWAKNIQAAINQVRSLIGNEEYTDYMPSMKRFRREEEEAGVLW
# [6] = cells; type: functional, cell-based
# [7] = cells; type: functional, cell-based; remark: listed apart in the source
# [8] = biological target: T4, Trace amine-associated receptor 1 (Homo sapiens, UniProt Q96RJ0); assay: Fluorescence-based cell-based high throughput dose response assay to identify agonists of the human trace amine associated receptor 1 (TAAR1).; type: functional
# T4 sequence (Q96RJ0 whole entry): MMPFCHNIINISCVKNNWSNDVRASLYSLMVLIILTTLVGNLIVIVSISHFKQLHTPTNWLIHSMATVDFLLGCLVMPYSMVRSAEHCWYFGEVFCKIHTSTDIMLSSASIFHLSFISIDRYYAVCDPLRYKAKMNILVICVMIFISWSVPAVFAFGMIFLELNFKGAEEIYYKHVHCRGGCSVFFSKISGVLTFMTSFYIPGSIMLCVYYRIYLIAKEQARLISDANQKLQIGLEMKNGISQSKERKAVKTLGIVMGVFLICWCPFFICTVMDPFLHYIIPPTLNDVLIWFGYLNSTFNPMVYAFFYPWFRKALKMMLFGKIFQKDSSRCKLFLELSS
# [9] = biological target: T4, Trace amine-associated receptor 1; assay: Counterscreen for agonists of the human trace amine associated receptor 1 (hTAAR1): Fluorescence-based cell-based high throughput dose response assay to identify hTAAR1 agonist that also desensitize TAAR1 receptor response.; type: functional
# [10] = biological target: T5, Phosphomannomutase 2 (Homo sapiens, UniProt O15305); assay: Counter screen SAR assay for PMM2 inhibitors via a fluorescence intensity assay. [Related pubchem assays (depositor defined):AID1545, AID1574]
# T5 sequence (O15305 whole entry): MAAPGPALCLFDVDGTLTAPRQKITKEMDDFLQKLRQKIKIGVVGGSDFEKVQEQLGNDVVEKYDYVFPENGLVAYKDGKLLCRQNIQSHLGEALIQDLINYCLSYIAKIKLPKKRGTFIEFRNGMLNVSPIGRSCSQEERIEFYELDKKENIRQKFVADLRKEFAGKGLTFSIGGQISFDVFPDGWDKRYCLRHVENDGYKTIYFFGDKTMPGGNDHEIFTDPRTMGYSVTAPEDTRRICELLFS
# [11] = biological target: T6, Mannose-6-phosphate isomerase (Homo sapiens, UniProt P34949); assay: PMI enzyme inhibitors, confirmation, biochemical, fluorescence intensity (AID 1535)
# T6 sequence (P34949 whole entry): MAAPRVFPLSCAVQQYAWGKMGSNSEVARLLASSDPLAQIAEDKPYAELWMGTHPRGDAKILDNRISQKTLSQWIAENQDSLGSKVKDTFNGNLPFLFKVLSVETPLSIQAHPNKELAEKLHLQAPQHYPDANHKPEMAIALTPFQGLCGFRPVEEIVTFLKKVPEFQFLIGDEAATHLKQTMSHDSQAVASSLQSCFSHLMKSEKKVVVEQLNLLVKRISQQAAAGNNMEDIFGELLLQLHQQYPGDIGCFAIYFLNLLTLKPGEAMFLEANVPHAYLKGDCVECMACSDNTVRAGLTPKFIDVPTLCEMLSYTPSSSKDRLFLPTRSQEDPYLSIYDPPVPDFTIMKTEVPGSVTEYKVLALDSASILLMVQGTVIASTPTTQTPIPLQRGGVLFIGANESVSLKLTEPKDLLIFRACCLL
# [12] = biological target: Beta-galactosidase (Escherichia coli, UniProt Q8VNN2); assay: Dose response counterscreen for EBI2 assay utilizing the enzyme, b-galactosidase.; type: functional
# Chain of Beta-galactosidase (Q8VNN2 whole entry): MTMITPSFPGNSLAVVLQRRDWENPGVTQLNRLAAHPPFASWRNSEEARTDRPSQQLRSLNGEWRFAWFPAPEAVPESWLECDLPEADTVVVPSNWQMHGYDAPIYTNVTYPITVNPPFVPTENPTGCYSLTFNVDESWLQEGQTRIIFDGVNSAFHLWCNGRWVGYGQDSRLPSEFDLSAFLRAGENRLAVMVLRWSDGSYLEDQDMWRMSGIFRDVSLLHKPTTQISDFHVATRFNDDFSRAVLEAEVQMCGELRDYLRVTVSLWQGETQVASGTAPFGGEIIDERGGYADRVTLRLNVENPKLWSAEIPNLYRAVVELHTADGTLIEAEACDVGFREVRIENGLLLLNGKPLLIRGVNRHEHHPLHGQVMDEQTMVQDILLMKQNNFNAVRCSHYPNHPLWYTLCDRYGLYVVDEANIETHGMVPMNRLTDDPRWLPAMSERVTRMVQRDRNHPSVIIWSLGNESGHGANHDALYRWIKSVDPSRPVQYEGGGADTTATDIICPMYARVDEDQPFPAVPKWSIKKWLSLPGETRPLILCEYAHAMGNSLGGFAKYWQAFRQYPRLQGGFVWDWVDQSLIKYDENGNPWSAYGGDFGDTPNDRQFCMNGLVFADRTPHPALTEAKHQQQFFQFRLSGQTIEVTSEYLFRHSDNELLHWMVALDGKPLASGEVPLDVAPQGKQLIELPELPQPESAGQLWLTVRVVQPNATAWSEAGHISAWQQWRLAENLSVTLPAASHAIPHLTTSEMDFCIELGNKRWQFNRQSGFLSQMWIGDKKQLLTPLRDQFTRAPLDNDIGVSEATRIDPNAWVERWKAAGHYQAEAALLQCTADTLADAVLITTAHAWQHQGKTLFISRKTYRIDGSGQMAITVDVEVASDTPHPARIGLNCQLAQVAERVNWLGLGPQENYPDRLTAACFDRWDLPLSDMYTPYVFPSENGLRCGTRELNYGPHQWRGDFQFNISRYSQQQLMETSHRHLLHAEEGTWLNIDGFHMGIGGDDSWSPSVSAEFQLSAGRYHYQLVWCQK
# [13] = biological target: T7, Short transient receptor potential channel 4 (Mus musculus, UniProt Q9QUQ5); assay: mouse TRPC4 channel activators, dose response, cell-based, HEK293 TRPC4/mu-opioid, Fluo-4 calcium (AID 434937); type: functional
# T7 sequence (Q9QUQ5 whole entry): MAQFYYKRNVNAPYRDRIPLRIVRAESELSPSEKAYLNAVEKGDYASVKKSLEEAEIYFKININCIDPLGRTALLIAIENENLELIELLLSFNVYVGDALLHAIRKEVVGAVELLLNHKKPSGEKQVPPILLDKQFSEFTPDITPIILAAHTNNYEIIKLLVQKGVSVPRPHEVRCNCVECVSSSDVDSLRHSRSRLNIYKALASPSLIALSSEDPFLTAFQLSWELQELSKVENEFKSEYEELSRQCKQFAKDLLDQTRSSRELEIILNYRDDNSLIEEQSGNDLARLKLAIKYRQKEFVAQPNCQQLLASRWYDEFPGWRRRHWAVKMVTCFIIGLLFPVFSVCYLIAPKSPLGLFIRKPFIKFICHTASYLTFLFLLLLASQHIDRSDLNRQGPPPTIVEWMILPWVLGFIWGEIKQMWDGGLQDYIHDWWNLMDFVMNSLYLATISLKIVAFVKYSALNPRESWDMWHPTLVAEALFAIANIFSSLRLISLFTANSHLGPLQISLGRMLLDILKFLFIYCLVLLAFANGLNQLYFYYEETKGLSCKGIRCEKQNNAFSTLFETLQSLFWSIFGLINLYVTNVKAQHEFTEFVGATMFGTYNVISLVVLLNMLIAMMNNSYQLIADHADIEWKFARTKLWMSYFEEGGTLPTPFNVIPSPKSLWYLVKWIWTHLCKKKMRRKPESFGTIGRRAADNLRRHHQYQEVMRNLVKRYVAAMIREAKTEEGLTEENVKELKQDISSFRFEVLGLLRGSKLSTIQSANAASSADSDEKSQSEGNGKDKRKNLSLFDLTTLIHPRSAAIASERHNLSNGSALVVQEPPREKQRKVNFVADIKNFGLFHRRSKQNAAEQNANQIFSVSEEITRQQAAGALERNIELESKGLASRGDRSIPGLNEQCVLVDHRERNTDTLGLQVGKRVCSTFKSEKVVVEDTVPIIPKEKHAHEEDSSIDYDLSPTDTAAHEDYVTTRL
# [14] = test system: Escherichia coli; assay: microbe, parasite or virus in culture
# [15] = biological target: Fatty acid synthase (Homo sapiens, UniProt P49327); assay: FAS thioesterase domain inhibitors, dose response, biochemical, kinetic fluorescence intensity (AID 624326); type: functional;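 also: rate of fluorescence rise from hydrolysis of a fluorogenic O-methyl fluorescein ester substrate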
# [16] = NIH-3T3 fibroblast cytotoxicity, dose response, cytotoxicity control, cell-based, fluorescence, Alamar Blue, secondary assay (AID 2327); type: functional;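 also: NIH-3T3 mouse fibroblasts cultured with fluconazole at 8 µg/mL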
# [17] = C. albicans growth with fluconazole, confirmation, fluorescence, retest (AID 2467); type: functional, cell-based
smiles,measurement,setting,value
COc1ccc([N+](=O)[O-])cc1C(=O)NC1CCN(Cc2ccccc2)CC1,AC50,[1],2.3 µM (active)
Cc1ccc(S(=O)(=O)N(CC(=O)N2CCN(c3ccccc3F)CC2)C2CCCCC2)cc1,EC50,[2],2.58 µM (active)
O=C(CN1CCCCCC1)N1c2ccccc2Sc2ccc(C(F)(F)F)cc21,EC50,[2],7.61 µM (active)
C/C=C/c1ccc2c(c1)O[C@@H](CN(C)C(=O)Nc1ccc(F)cc1)[C@@H](C)CN([C@@H](C)CO)S2(=O)=O,AC50,[1],4.65 µM (active)
Cc1ccc2[nH]cc(CCNC(=O)Nc3ccccc3)c2c1,EC50,[2],5.23 µM (active)
CCC(=O)OC1(C)C(=O)C=C2C=C(C3CC3)OC=C2C1=O (configuration not stated),EC50,[3],> 300 µM (not active)
same,EC50,[4],30.4 µM (active)
same,IC50,[5],> 100 µM (active)
CC(C)[C@H](NC(=O)c1ccc(Cl)c(Cl)c1)C(=O)N1CCC[C@H]1C(=O)NCCc1ccccc1Cl,EC50,[6],> 29.9 µM (inactive)
same,IC50,[7],> 29.9 µM (inactive)
same,EC50,[8],1.45 µM (active)
same,IC50,[9],1.53 µM (active)
O=[N+]([O-])c1ccc(/N=c2\ssnc2Cl)c2ccccc12,IC50,[10],> 100 µM (inactive)
same,IC50,[11],> 100 µM (inactive)
CN(C)c1ccc(/N=c2\ssnc2Cl)cc1,IC50,[10],> 100 µM (inactive)
same,IC50,[11],12.4 µM (active)
O=C(c1cc(=O)c2cc(Cl)ccc2o1)N1CCN(Cc2ccccc2)CC1,IC50,[12],> 80 µM (inactive)
O=S(=O)(NCCc1csc(-c2ccccc2)n1)c1cccnc1,EC50,[13],3.76 µM (active)
O=C(c1nc(C(F)(F)F)[nH]c1-c1ccccc1)N1CCc2ccccc2C1,EC50,[6],> 29.9 µM (inactive)
same,IC50,[7],> 29.9 µM (inactive)
same,EC50,[8],2.77 µM (active)
same,IC50,[9],9.85 µM (active)
COc1ccc(NS(=O)(=O)c2ccc(NC(=S)NC(=O)C(C)C)cc2)cc1,EC50,[6],19 µM (inactive)
same,IC50,[7],11.5 µM (inactive)
same,EC50,[8],1.99 µM (active)
same,IC50,[9],6.23 µM (active)
Cc1cc(C)c(S(=O)(=O)N2CCN(C(=O)c3cc4ccccc4o3)CC2)c(C)c1,IC50,[12],> 80 µM (inactive)
Cc1csc2c(N3CCN(C(S)=Nc4ccc(C(F)(F)F)cc4)CC3)ncnc12,EC50,[13],1.68 µM (active)
COc1ccc(N(CC(=O)NCCSc2ccccc2)S(=O)(=O)c2ccccc2)cc1,IC50,[12],> 80 µM (inactive)
CCOc1ccc(NC(=O)c2ccc(NC(=O)c3cn4c5c(c(N6CCN(C)CC6)c(F)cc5c3=O)OCC4C)cc2)cc1 (configuration not stated),AC50,[14],0.645 µM (active)
Cc1ccc2nc(-n3sc4ccccc4c3=O)sc2c1,IC50,[10],> 100 µM (inactive)
same,IC50,[11],> 50 µM (inactive)
O=C(NCCCN1CCN(c2cccc(Cl)c2)CC1)C1(S(=O)(=O)c2ccc(Cl)cc2)CC1,EC50,[2],6.17 µM (active)
O=C(Nc1nc2c(s1)CCCC2)c1cccc(S(=O)(=O)N2CCCc3ccccc32)c1,AC50,[14],134 µM (active)
COCc1cc(C)nc(SCC[N+](C)(C)CC(=O)Nc2ccccc2)c1C#N,IC50,[15],12.4 µM (active)
COc1ccccc1N1CCN(C(=O)c2cc3cc(Cl)ccc3[nH]2)CC1,IC50,[12],> 80 µM (inactive)
same,EC50,[16],38.6 µM (active)
same,EC50,[17],> 38 µM (not active)
CCN1CCN(C(=O)C(NS(=O)(=O)c2ccc3nc(C)sc3c2)C(C)C)CC1 (configuration not stated),AC50,[14],> 150 µM (inactive)
Cc1cc(C)c2cc(C#N)c(N3CCNCC3)nc2c1,EC50,[6],> 30 µM (inactive)
same,IC50,[7],> 30 µM (inactive)
same,EC50,[8],1.55 µM (active)
same,IC50,[9],4.28 µM (active)
CCOC(=O)c1sc(NC(=O)C(CC)OC(=O)C(CC(C)C)NC(=O)c2ccccc2)nc1C (configuration not stated),EC50,[2],5.2 µM (active)
O=C(NCCc1ccccn1)c1ccc(OC2CCN(CCc3ccccc3)CC2)cc1,EC50,[13],1.19 µM (active)
CCCNC(=O)c1cn(CC)c2cc(N3CCN(C)CC3)c(F)cc2c1=O,AC50,[14],2.04 µM (active)
CN(C)CCCN(C(=O)c1ccc(S(=O)(=O)N2CCc3ccccc32)cc1)c1nc2ccc(F)cc2s1,EC50,[13],2.66 µM (active)
